Test results taken from patent publication US20080214517A1, “Modulation of the Expression of Estrogen Receptors for the Prevention or Treatment of Heart Disease” (priority 2003, published 2008).

How the values were obtained:
[1] = system: porcine aortic endothelial cells (PAEC); assay: Chemotactic assay (modified Boyden chamber), PAEC migration; type: cell-based; settings: 17βE 10^−8 mol/L, 5 hours, compared to cells treated with FBS 1%
Method: FIG. 6: Contribution of ERα and ERβ on PAEC migration. PAEC were trypsinized and resuspended in DMEM; 2.5×10^5 cells/well of a six-well tissue culture plate were stimulated with or without antisense oligomers as described in the methods. 2.5×10^4 cells were added in the higher compartment of the modified Boyden chamber apparatus with or without antisense oligomers, and the lower chamber was filled with DMEM 1% FBS, and antibiotics with or without 17βE (10^−8 mol/L). Five hours postincubation at 37° C., the migrated cells were fixed, stained and counted by using a microscope adapted to a digitized video camera. The values are represented as relative mean of migrating cells/mm^2 from 6 chambers for each treatment. *, P<0.05 as compared to unstimulated cells; t, P<0.05 as compared to cells treated with 17βE (10^−8 mol/L).
(§1) Cell migration was evaluated using a modified Boyden 48-well microchamber kit (NeuroProbe, Cabin John, Md.). Near confluent PAEC and PSMC were rinsed with DMEM and trypsinized. Cells were resuspended in DMEM, 5% FBS, and antibiotics, and a cell count was obtained. […] The filter was then mounted on a glass slide, and migrated cells were counted using a microscope adapted to a video camera to obtain a computer-digitized image. […]

p38 MAPK phosphorylation [2] = assay: Western blot of p38 MAPK phosphorylation in PSMC; type: cell-based, porcine; settings: PDGF-BB stimulation 30 minutes; 17βE 10^−8 mol/L 30-minute pretreatment
Method: (§2) FIG. 4: Contribution of ERα and ERβ on p42/44 and p38 MAPK activation in PSMC. PSMC were seeded at 1×10^6 cells/100-mm culture plate and grown to confluence. Cells were treated either with antisense or scrambled oligomers as described in the methods. Cells were then treated with or without 17βE (10^−8 mol/L) for 30 minutes and stimulated 5 minutes for p42/44 MAPK (A) or 30 minutes for p38 MAPK (B) with PDGF-BB. Proteins were detected by Western blot analyses. Image densitometry results are given as relative expression (%) as compared to control PBS-treated cells.
(§3) The efficiency and specificity of our antisense oligomers to prevent the expression of targeted proteins were evaluated by Western blot analyses. Culture medium of confluent PAEC and PSMC (100-mm tissue culture plate) was removed, the cells were rinsed with Dulbecco's modified eagle medium (DMEM; Life Technologies Inc., Carlsbad, Calif.) and trypsinized (trypsine-EDTA; Life Technologies). Cells were resuspended in DMEM containing 5% of fetal bovine serum (FBS) (Hyclone Laboratories, Logan, Utah) and antibiotics (penicillin and streptomycin, Sigma, St-Louis, Mo.), and a cell count was obtained with a Coulter counter Z1 (Coulter Electronics, Luton, UK). […] Plates were incubated at 4° C. for 30 minutes and scraped, and the protein concentration was determined with a Bio-Rad protein assay kit (Bio-Rad, Hercules, Calif.). […]

[3] = system: porcine aortic endothelial cells (PAEC); assay: Mitogenic assay, PAEC proliferation; type: cell-based; settings: 17βE 10^−8 mol/L, compared to cells treated with FBS 1%; 3 days
Method: FIG. 5: Contribution of ERα and ERβ on PAEC proliferation. PAEC were seeded at 1×10^4 cells/well and stimulated with or without antisense oligomers as described in the methods. Cells were then stimulated with or without 17βE (10^−8 mol/L) and a cell count achieved 72 hours post-treatment. The values are means of cell counts obtained from 6 wells for each treatment. *, P<0.05 as compared to day 0; †, P<0.05 as compared to control (1% FBS); ‡, P<0.05 as compared to cells treated with 17βE (10^−8 mol/L).
(§4) Confluent PAEC and PSMC were rinsed with DMEM and trypsinized. Cells were resuspended in 10 mL of DMEM, 5% FBS, and antibiotics, and a cell count was obtained by using a Coulter counter Z1. PAEC and PSMC were initially seeded at 1×10^4 cells/well of 24-well tissue culture plates stimulated for 24 hours in DMEM, 5% FBS, and antibiotics with or without antisense oligomers (10^−6 mol/L), and starved for 48 hours in DMEM, 0.1% FBS, and antibiotics with or without antisense oligomers (10^−6 mol/L daily) for Go synchronization. The cells were stimulated for 72 hours in DMEM, 1% FBS, antibiotics with or without antisense oligomers (10^−6 mol/L daily) and with or without of 17βE (10^−8 mol/L). After trypsinization, cell number was determined by using a Coulter counter Z1.

p38 MAPK phosphorylation [4] = assay: Western blot of p38 MAPK phosphorylation in PAEC; type: cell-based, porcine; settings: 17βE, 30 minutes stimulation; vs PBS-treated PAEC
Method: (§5) FIG. 7: Contribution of ERα and ERβ on p42144 and p38 MAPK activation in PAEC. PAEC were seeded at 1×10^6 cells/100-mm culture plate and grown to confluence. Cells were treated either with antisense or scrambled oligomers as described in the methods. Cells were then treated with or without 17βE (10^−8 mol/L) for 5 minutes for p42/44 MAPK activation (A) or 30 minutes for p38 MAPK stimulation (B). Proteins were detected by Western blot analyses. Image densitometry results are given as relative expression (%) as compared to control PBS-treated cells.
as §3

[5] = system: porcine smooth muscle cells (PSMC); assay: Chemotactic assay (modified Boyden chamber), PSMC migration; type: cell-based; settings: PDGF-BB 10 ng/mL
Method: FIG. 3: Contribution of ERα and ERβ on PSMC migration. PSMC were trypsinized and resuspended in DMEM; 2.5×10^5 cells/well of a six-well tissue culture plate were stimulated with or without antisense oligomers as described in the methods. 2.5×10^4 cells were added in the higher compartment of the modified Boyden chamber apparatus with or without antisense oligomers, and the lower chamber was filled with DMEM 1% FBS, and antibiotics with or without PDGF-BB (10 ng/ml). Five hours postincubation at 37° C., the migrated cells were fixed, stained and counted by using a microscope adapted to a digitized video camera. The values are represented as relative mean of migrating cells from 6 chambers for each treatment. *, P<0.05 as compared unstimulated cells; †, P<0.05 as compared to cells treated with PDGF-BB; ‡, P<0.05 as compared to cells treated with 17βE (10^−8 mol/L).
as §1

[6] = system: porcine smooth muscle cells (PSMC); assay: Mitogenic assay, PSMC proliferation; type: cell-based; settings: 17βE (10^−8 mol/L); 72 hours
Method: FIG. 2: Contribution of ERα and ERβ on PSMC proliferation. PSMC were seeded at 1×10^4 cells/well and stimulated with or without antisense oligomers as described in the methods. Cells were then stimulated with or without 17βE (10^−8 mol/L) and a cell count achieved 72 hours post-treatment. The values are means of cell counts obtained from 6 wells for each treatment. *, P<0.05 as compared to day 0; t, P<0.05 as compared to control (1% FBS); *, P<0.05 as compared to cells treated with 17βE ([…]).
as §4

[7] = local delivery following coronary angioplasty in pigs; cited from earlier work
[8] = system: p42/44 MAPK phosphorylation; assay: Western blot of p42/44 MAPK phosphorylation in PAEC; type: cell-based, porcine; settings: 17βE 10^−8 mol/L, 5 minutes; vs PBS-treated PAEC
Method: as §5, §3

[9] = system: p42/44 MAPK phosphorylation; assay: Western blot of p42/44 MAPK phosphorylation in PSMC; type: cell-based, porcine; settings: PDGF-BB stimulation 5 minutes; 17βE 10^−8 mol/L 30-minute pretreatment
Method: as §2, §3

Molecule | promotion of PAEC migration [1] [%] | p38 MAPK phosphorylation in PSMC (in words) (p38 MAPK phosphorylation [2]) | enhancement of PAEC proliferation [3] [%] | increase of p38 MAPK phosphorylation in PAEC (p38 MAPK phosphorylation [4]) [%] | inhibition of the chemotactic effect of PDGF-BB on PSMC (in words) ([5]; 17βE 10^−8 mol/L) | prevention of PSMC proliferation mediated by FBS 1% [6] [%] | endothelial NO synthase (eNOS) expression (in words) [7] | neointimal formation (in words) [7] | reendothelialization process (in words) [7] | increase of p42/44 MAPK phosphorylation in PAEC [8] [%] | p42/44 MAPK phosphorylation in PSMC (in words) [9] | increase of basal migration of PSMC ([5]; 5 hours, compared to cells treated with FBS 1%) [%]
C[C@]12CC[C@@H]3c4ccc(O)cc4CC[C@H]3[C@@H]1CC[C@@H]2O [17βE, 17-beta-estradiol] | 363 | reversed | 123 | 254 | inhibited completely | 95 | improving | reducing | improving | 317 | reversed | –
PDGF-BB: platelet-derived growth factor-BB, agonist used to stimulate PSMC migration and MAPK phosphorylation (protein, UniProt P01127 82-190, looked up) Platelet-derived growth …: SLGSLTIAEPAMIAECKTRTEVFEISRRLIDRTNANFLVWPPCVEVQRCSGCCNNRNVQCRPTQVQLRPVQVRKIEIVRKKPIFKKATVTLEDHLACKCETVAAARPVT | – | increased | – | – | – | – | – | – | – | – | increased | 141
